Test results: patent publication US20260262643A1, “HERBICIDAL BENZOXAZINES” (FMC CORPORATION, priority 2022, published 2026)

Legend:
corn [1] = test: Test A preemergence; format: in vivo, Zea mays
Source text: (§1) Seeds of plant species selected from barnyardgrass (Echinochloa crusgalli), blackgrass (Alopecurus myosuroides), corn (Zea mays), foxtail, giant (giant foxtail, Setaria faberi), goosegrass (Eleusine indica), kochia (Bassia scoparia), oat, wild (wild oat, Avena fatua), pigweed, palmer (palmer amaranth, palmer pigweed, Amaranthus palmeri), Pigweed, Redroot (redroot pigweed, Amaranthus retroflexus), ragweed (common ragweed, Ambrosia artemisiifolia), ryegrass, Italian (italian ryegrass, Lolium multiflorum), soybean (Glycine max), and wheat (Triticum aestivum) were planted into a blend of loam soil and sand and treated preemergence with a directed soil spray using test chemicals formulated in a non-phytotoxic solvent mixture which included a surfactant. At the same time, plants selected from these crops and weed species and also galium (catchweed bedstraw, Galium aparine) and horseweed (Erigeron canadensis) were planted in pots containing the same blend of loam soil and sand and treated with postemergence applications of test chemicals formulated in the same manner. Plants ranged in height from 2 to 10 cm and were in the one- to two-leaf stage for the postemergence treatment. Treated plants and untreated controls were maintained in a greenhouse for 10 days, after which time all treated plants were compared to untreated controls and visually evaluated for injury. Plant response ratings, summarized in Table A, are based on a 0 to 100 scale where 0 is no effect and 100 is complete control. A dash (-) response means no test result.

foxtail, giant [2] = test: Test A preemergence; format: in vivo, Setaria faberi
Method in brief: (§2)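 Loam/sand soil; pre-em directed soil spray at planting, post-em spray at 1–2 leaf (2–10 cm). Compound in non-phytotoxic solvent + surfactant. Greenhouse 10 d; visual injury vs untreated, 0 = no effect, 100 = complete control.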

goosegrass [3] = test: Test A preemergence; format: in vivo, Eleusine indica
Method in brief: as §2

kochia [4] = test: Test A preemergence; format: in vivo, Bassia scoparia
Method in brief: as §2

pigweed, palmer [5] = test: Test A preemergence; format: in vivo, Amaranthus palmeri
Method in brief: as §2

ragweed [6] = test: Test A preemergence; format: in vivo, Ambrosia artemisiifolia
Method in brief: as §2

ryegrass, Italian [7] = test: Test A preemergence; format: in vivo, Lolium multiflorum
Method in brief: as §2

soybean [8] = test: Test A preemergence; format: in vivo, Glycine max
Source text: as §1

wheat [9] = test: Test A preemergence; format: in vivo, Triticum aestivum
Source text: as §1

blackgrass = test: Test A postemergence; format: in vivo, Alopecurus myosuroides
Method in brief: as §2

corn [10] = test: Test A postemergence; format: in vivo, Zea mays; conditions: postemergence, 10 days, visual injury, 0 to 100 scale (0 no effect, 100 complete control)
Source text: as §1

foxtail, giant [11] = test: Test A postemergence; format: in vivo, Setaria faberi; conditions: postemergence, 10 days, visual injury, 0 to 100 scale (0 no effect, 100 complete control)
Method in brief: as §2

goosegrass [12] = test: Test A postemergence; format: in vivo, Eleusine indica; conditions: postemergence, 10 days, visual injury, 0 to 100 scale (0 no effect, 100 complete control)
Method in brief: as §2

kochia [13] = test: Test A postemergence; format: in vivo, Bassia scoparia; conditions: postemergence, 10 days, visual injury, 0 to 100 scale (0 no effect, 100 complete control)
Method in brief: as §2

oat, wild = test: Test A postemergence; format: in vivo, Avena fatua; conditions: 500 g ai/ha, postemergence, 10 days, visual injury, 0 to 100 scale (0 no effect, 100 complete control)
Source text: as §1

pigweed, palmer [14] = test: Test A postemergence; format: in vivo, Amaranthus palmeri; conditions: 500 g ai/ha, postemergence, 10 days, visual injury, 0 to 100 scale (0 no effect, 100 complete control)
Method in brief: as §2

ragweed [15] = test: Test A postemergence; format: in vivo, Ambrosia artemisiifolia; conditions: 500 g ai/ha, postemergence, 10 days, visual injury, 0 to 100 scale (0 no effect, 100 complete control)
Method in brief: as §2

ryegrass, Italian [16] = test: Test A postemergence; format: in vivo, Lolium multiflorum; conditions: 500 g ai/ha, postemergence, 10 days, visual injury, 0 to 100 scale (0 no effect, 100 complete control)
Method in brief: as §2

soybean [17] = test: Test A postemergence; format: in vivo, Glycine max; conditions: 500 g ai/ha, postemergence, 10 days, visual injury, 0 to 100 scale (0 no effect, 100 complete control)
Source text: as §1

wheat [18] = test: Test A postemergence; format: in vivo, Triticum aestivum; conditions: 500 g ai/ha, postemergence, 10 days, visual injury, 0 to 100 scale (0 no effect, 100 complete control)
Source text: as §1

galium = test: Test A postemergence; format: in vivo, Galium aparine; conditions: postemergence, 10 days, visual injury, 0 to 100 scale (0 no effect, 100 complete control)
Method in brief: as §2

horseweed = test: Test A postemergence; format: in vivo, Erigeron canadensis; conditions: postemergence, 10 days, visual injury, 0 to 100 scale (0 no effect, 100 complete control)
Method in brief: as §2

barnyardgrass = test: Test B flooded paddy test; format: in vivo, Echinochloa crus-galli; conditions: 250 g ai/ha, Flood, 13 days, 0 to 100 scale (0 no effect, 100 complete control)
Description: (§3) Plant species in the flooded paddy test selected from barnyardgrass (Echinochloa crus-galli), ducksalad (Heteranthera limosa), rice (Oryza sativa), and sedge, umbrella (small-flower umbrella sedge, Cyperus difformis) were grown to the 2-leaf stage for testing. At time of treatment, test pots were flooded to 3 cm above the soil surface, treated by application of test compounds directly to the paddy water, and then maintained at that water depth for the duration of the test. Treated plants and controls were maintained in a greenhouse for 13 days, after which time all species were compared to controls and visually evaluated. Plant response ratings, summarized in Table B, are based on a scale of 0 to 100 where 0 is no effect and 100 is complete control. A dash (-) response means no test result.

ducksalad = test: Test B flooded paddy test; format: in vivo, Heteranthera limosa; conditions: 250 g ai/ha, Flood, 13 days, 0 to 100 scale (0 no effect, 100 complete control)
Description: as §3

rice = test: Test B flooded paddy test; format: in vivo, Oryza sativa; conditions: 250 g ai/ha, Flood, 13 days, 0 to 100 scale (0 no effect, 100 complete control)
Description: as §3

sedge, umbrella = test: Test B flooded paddy test; format: in vivo, Cyperus difformis; conditions: 250 g ai/ha, Flood, 13 days, 0 to 100 scale (0 no effect, 100 complete control)
Description: as §3

[19] = 125 g ai/ha, visual injury after 10 days, 0 to 100 scale, 0 is no effect, 100 is complete control
[20] = 500 g ai/ha, 0 to 100 scale (0 no effect, 100 complete control), 10 days
[21] = 125 g ai/ha, postemergence, 10 days, visual injury, 0 to 100 scale (0 no effect, 100 complete control)
[22] = 500 g ai/ha, Postemergence, 0 to 100 scale

CCc1ncn(-c2ccc(C)c(C(=O)N3C[C@H](C)Oc4c(Cl)cccc43)c2)n1 [Compound 75]
98: Plant response rating, Sedge, Umbrella (sedge, umbrella)
90: Plant response rating, Kochia (kochia [4]; [20]) | Plant response rating, Blackgrass (blackgrass; [21]) | Plant response rating, Blackgrass (blackgrass; [22]) | Plant response rating, Corn (corn [10]; 500 g ai/ha) | Plant response rating, Foxtail, Giant (foxtail, giant [11]; 125 g ai/ha) | Plant response rating, Goosegrass (goosegrass [12]; 500 g ai/ha) | Plant response rating, Kochia (kochia [13]; 125 g ai/ha) | Plant response rating, Kochia (kochia [13]; 500 g ai/ha) | Plant response rating, Oat, Wild (oat, wild)
60: Plant response rating, Corn (corn [10]; 125 g ai/ha) | Plant response rating, Wheat (wheat [18])
80: Plant response rating, Kochia (kochia [4]; [19]) | Plant response rating, Soybean (soybean [8]; [19]) | Plant response rating, Wheat (wheat [9]; [20]) | Plant response rating, Ragweed (ragweed [15])
0: Plant response rating, Ragweed (ragweed [6]; [19])
100: Plant response rating, Foxtail, Giant (foxtail, giant [2]; [19]) | Plant response rating, Foxtail, Giant (foxtail, giant [2]; [20]) | Plant response rating, Goosegrass (goosegrass [3]; [19]) | Plant response rating, Goosegrass (goosegrass [3]; [20]) | Plant response rating, Pigweed, Palmer (pigweed, palmer [5]; [19]) | Plant response rating, Pigweed, Palmer (pigweed, palmer [5]; [20]) | Plant response rating, Ragweed (ragweed [6]; [20]) | Plant response rating, Ryegrass, Italian (ryegrass, Italian [7]; [19]) | Plant response rating, Ryegrass, Italian (ryegrass, Italian [7]; [20]) | Plant response rating, Soybean (soybean [8]; [20]) | Plant response rating, Foxtail, Giant (foxtail, giant [11]; 500 g ai/ha) | Plant response rating, Pigweed, Palmer (pigweed, palmer [14]) | Plant response rating, Ryegrass, Italian (ryegrass, Italian [16]) | Plant response rating, Soybean (soybean [17]) | Plant response rating, Galium (galium; 125 g ai/ha) | Plant response rating, Galium (galium; 500 g ai/ha)
10: Plant response rating, Rice (rice)
30: Plant response rating, Wheat (wheat [9]; [19])
50: Plant response rating, Corn (corn [1]; [20]) | Plant response rating, Horseweed (horseweed; 125 g ai/ha) | Plant response rating, Barnyardgrass (barnyardgrass)
40: Plant response rating, Corn (corn [1]; [19])
70: Plant response rating, Goosegrass (goosegrass [12]; 125 g ai/ha) | Plant response rating, Horseweed (horseweed; 500 g ai/ha) | Plant response rating, Ducksalad (ducksalad)

Cc1cccc2c1O[C@@H](C)CN2C(=O)c1cccc(-n2cnc(C3CCC3)n2)c1 [Compound 77]
40: Plant response rating, Corn (corn [10]; 125 g ai/ha)
0: Plant response rating, Corn (corn [1]; [19]) | Plant response rating, Ragweed (ragweed [6]; [19]) | Plant response rating, Ragweed (ragweed [6]; [20]) | Plant response rating, Soybean (soybean [8]; [19]) | Plant response rating, Ragweed (ragweed [15]) | Plant response rating, Barnyardgrass (barnyardgrass) | Plant response rating, Rice (rice)
30: Plant response rating, Corn (corn [1]; [20]) | Plant response rating, Wheat (wheat [18])
10: Plant response rating, Oat, Wild (oat, wild)
50: Plant response rating, Soybean (soybean [8]; [20]) | Plant response rating, Wheat (wheat [9]; [20]) | Plant response rating, Blackgrass (blackgrass; [21]) | Plant response rating, Horseweed (horseweed; 125 g ai/ha) | Plant response rating, Horseweed (horseweed; 500 g ai/ha)
70: Plant response rating, Blackgrass (blackgrass; [22]) | Plant response rating, Foxtail, Giant (foxtail, giant [11]; 125 g ai/ha) | Plant response rating, Pigweed, Palmer (pigweed, palmer [14])
20: Plant response rating, Wheat (wheat [9]; [19]) | Plant response rating, Goosegrass (goosegrass [12]; 125 g ai/ha) | Plant response rating, Ducksalad (ducksalad)
90: Plant response rating, Foxtail, Giant (foxtail, giant [2]; [19]) | Plant response rating, Kochia (kochia [4]; [19]) | Plant response rating, Kochia (kochia [4]; [20]) | Plant response rating, Pigweed, Palmer (pigweed, palmer [5]; [19]) | Plant response rating, Foxtail, Giant (foxtail, giant [11]; 500 g ai/ha) | Plant response rating, Kochia (kochia [13]; 125 g ai/ha) | Plant response rating, Kochia (kochia [13]; 500 g ai/ha)
80: Plant response rating, Ryegrass, Italian (ryegrass, Italian [7]; [19]) | Plant response rating, Corn (corn [10]; 500 g ai/ha)
100: Plant response rating, Foxtail, Giant (foxtail, giant [2]; [20]) | Plant response rating, Goosegrass (goosegrass [3]; [19]) | Plant response rating, Goosegrass (goosegrass [3]; [20]) | Plant response rating, Pigweed, Palmer (pigweed, palmer [5]; [20]) | Plant response rating, Ryegrass, Italian (ryegrass, Italian [7]; [20]) | Plant response rating, Soybean (soybean [17]) | Plant response rating, Galium (galium; 125 g ai/ha) | Plant response rating, Galium (galium; 500 g ai/ha)
60: Plant response rating, Goosegrass (goosegrass [12]; 500 g ai/ha) | Plant response rating, Ryegrass, Italian (ryegrass, Italian [16])
85: Plant response rating, Sedge, Umbrella (sedge, umbrella)
